The source of these data is PMC4335872, “Pharmacokinetic-Pharmacodynamic Analysis of Spiroindolone Analogs and KAE609 in a Murine Malaria Model” (Antimicrobial Agents and Chemotherapy, 2015).

Converted amounts (≈) assume the structure as drawn. “Also recorded” adds a separate entry of the source. Read-outs that look alike come from different tables or passages of the source.

In general, Cmax refers to the highest concentration seen after dosing. In general, Tmax refers to the time from dosing to the highest level. As usually defined, the Solubility is how much of the substance goes into solution per volume. The term Hill slope denotes the slope factor of the fitted curve.

The nature of series [1]: Intrinsic clearance in mouse liver microsomes. In kind it is in vitro ADME. The note with it: per mg protein. The text has this:
(§1) page 5: Running title: PreclinicalPK -PD of antimalarials 73 to high through put form at using in- house standard assa y protocols that are described in the 74 literature. 75 (a)HT-Equilibrium solubilit y at pH 6.8( 1); (b)Parallel Artificial Membrane P ermeability Assa y 76 expressed in % fraction absorbed (FA) ( 2,3 ); (c)Apparent permeability from apical to […] 78 tested; (d)intrinsic clearance in mouse liver micro somes ex pressed as µ L/ min/mg protein, in 79 the presen ce of liver enzym es ( 6); (e)Mous e plasm a protein binding using rapid equilibrium […] 81 82 83 84 85 86 87 88 89 90 91 92 93 94 95 96 97 98 5
Background: Liver microsomes are a subcellular fraction often used to study metabolism.

The nature of series [2]: In vivo PK after single p.o. and i.v. dosing in CD-1 mice. Further details: species or system female CD-1 mice. The note with it: for AUC(0-t): read-out: AUC0–24. How it is done: The Institutional Animal Care and Use Committee (IACUC) of the Novartis Institute for Tropical Diseases (NITD), registered with the Agri-Food and Veterinary authority (AVA), Government of Singapore, reviewed and approved all animal experimental protocols. […] The mice were allowed to acclimate before the initiation of the experiments. Feed and water were given ad libitum. […] The blood samples from the mice were collected at 0.02 (for i.v. only), 0.08, 0.25, 0.5, 1, 2, 4, 8, 16, and 24 h postdosing. The dose proportionality studies were conducted with KAE609. […] Additional samples were collected at 32 h and 48 h postdose for the 1- and 5-mg/kg dose groups and up to 72 h postdose for the 100-mg/kg dose group. Groups of three mice were used for each time point. Blood was centrifuged at 13,000 rpm for 7 min at 4°C, and plasma was harvested and stored at -20°C until analysis. […] After vortexing and centrifuging the mixture, the supernatant was removed and 5 μl of sample analyzed. Analyte quantitation was performed by high-performance liquid chromatography coupled with tandem mass spectrometry (LC-MS/MS). […] Instrument control and data acquisition were performed using the Applied Biosystems software Analyst 1.4.2. […] Multiple-reaction monitoring (MRM) was combined with optimized MS parameters to maximize detection specificity and sensitivity. The most intense MRM transitions [338.3/295.1 for (+)-1, 370.1/327.0 for (+)-2, 370.0/326.9 for (+)-3, 354.1/310.8 for (+)-4, 354.1/311.2 for (+)-5, 372.1/329.1 for (+)-6, 388.0/331.8 for (+)-7, 372.1/316.1 for (-)-6, and 388/332 for (-)-7] were used for quantitation. Most compounds were analyzed using electrospray ionization in the negative mode, except (+)-1, which was analyzed using positive mode. The recovery of the compounds from plasma was good and consistent across the concentration range studied. The lower limits of quantification for different compounds ranged from 1.3 to 70 ng/ml in plasma. A calibration curve was freshly prepared and analyzed with every set of study samples. Intraday variability was established with triplicate quality control samples at three concentration levels. The results were accepted if relative standard deviation was <15%. The mean values of the compound concentrations in plasma were obtained from three animals at each time point and plotted against time to generate concentration-time profiles. […] The oral bioavailability (F) was calculated as the ratio between the area under the concentration-time curve from 0 to infinity (AUC0-∞) following oral administration and the AUC0-∞ following intravenous administration corrected for dose (F = […].).

Series [3] can be described thus: HT-equilibrium solubility. In kind it is physicochemical. The following applies: pH 6.8, HT-equilibrium solubility. The text has this:
(§2) page 5: Running title: PreclinicalPK -PD of antimalarials 73 to high through put form at using in- house standard assa y protocols that are described in the 74 literature. […] 81 82 83 84 85 86 87 88 89 90 91 92 93 94 95 96 97 98 5

For series [4], the system named is P. berghei GFP ANKA malaria strain PbGFPCON. Description: Dose-response efficacy in the P. berghei malaria mouse model. The following applies: for Hill slope: dose vs parasitemia model; for Pmax (maximum parasitemia) / Pmin (minimum parasitemia): sigmoid dose-response model, single oral doses 24 h postinfection; for Pmax (maximum parasitemia) / Pmin (minimum parasitemia) / ED90 (effective dose causing a 90% reduction in parasitemia): parasitemia 72 h postinfection; for ED90 (effective dose causing a 90% reduction in parasitemia): single oral dose 24 h postinfection. In kind it is in vivo, female NMRI mice. The text has this: All in vivo studies conducted at the Swiss Tropical and Public Health Institute (TPH) adhered to local and national regulations of laboratory animal welfare in Switzerland (permission no. 1731). For in vivo efficacy, female (specific-pathogen-free) […] (NMRI) mice were obtained from Janvier, Le Genest-Saint-Isle, France. Only mice without visible signs of disease were used for the study. Standard laboratory conditions were adopted for husbandry. In vivo antimalarial activity was assessed using groups of five female NMRI mice (20 to 22 g) intravenously infected on day zero with 2 × 10^7 erythrocytes parasitized with P. berghei GFP ANKA malaria strain PbGFPCON (a donation from A. P. Waters and C. J. Janse, Leiden University) ([39]). Untreated control mice typically died between day six and day seven postinfection. Experimental compounds were formulated in 10% ethanol, 30% PEG 400, and 60% of 10% vitamin E TPGS and were administered orally in a volume of 10 ml/kg. Dose-response efficacy studies were conducted for each spiroindolone analog. Doses of 2.5, 5, 10, 30, and 100 mg/kg were administered to groups of 5 mice each as a single dose at 24 h postinfection. Parasitemia, expressed as parasitized red blood cells (pRBCs) of >100 RBCs, was determined 72 h postinfection using standard flow cytometry techniques ([39]).
Data analysis was done using nonlinear mixed-effect modeling (NONMEM version VI 2.0), which analyzed the PD data from multiple dose groups obtained simultaneously from different experiments. Within NONMEM, first-order conditional estimation (FOCE) was the method used ([40]). The log-transformed dose and level of parasitemia were used for analysis. For each compound, a dose-response model was built, and the ED90 (effective dose lowering 90% of parasitemia) values were determined using equation 1 ([41]), where P is the parasitemia measured at any given dose, Pmax is the maximum level of parasitemia, Pmin is the minimum level of parasitemia, EZ50 is the dose required to produce 50% of the maximal effect, s is the Hill slope describing the steepness of the curve, and x is the dose (in mg/kg). 1 P=Pmin +{[Pmax−Pmin]/[1+10^(logEZ50−log x)×s]}

Series [5] is described as follows: RBC to plasma partitioning. It counts as in vitro ADME. The following applies: mean from 1 µM & 10 µM.
Source text: as §2

Series [6] can be described thus: Mouse plasma protein binding, rapid equilibrium dialysis. It counts as in vitro ADME.
Source text: as §1
A general note: Equilibrium dialysis compares concentrations on both sides of a semipermeable membrane.

The mark [7] stands for this setting: oral 1.5–105 mg/kg, CD-1 mouse, power regression model.
Setting [8] is: oral 25 mg/kg vs i.v. 5 mg/kg, CD-1 mice.
Setting [9] is: single oral dose 25 mg/kg, CD-1 mice.
Where [10] appears, read: single oral dose 25 mg/kg, CD-1 mice, plasma.

Turning to `C[C@H]1Cc2c([nH]c3cc(Cl)c(F)cc23)[C@@]2(N1)C(=O)Nc1ccc(Cl)cc12` [(+)-7 (KAE609)], the microsomal CLint in series [1] (mouse, liver microsomes, read-out: Hepatic CLint in mouse liver microsomes) was found to be 28 µL/min/mg. In addition, the Vd in series [2] (female, mouse, plasma, iv, i.v. 5 mg/kg, CD-1 mice, read-out: Vss) was determined as 2.1 L/kg. The half-life in series [2] (female, mouse, plasma, iv, i.v. 5 mg/kg, CD-1 mice, read-out: t1/2 (i.v.) (converted)) was 3.4 h; in series [2] (female, mouse, plasma, oral 1.5 mg/kg, CD-1 mice, HCl/Solutol HS15/citrate pH 3 formulation, read-out: t1/2 (oral) (converted)), 8.7 h; in series [2] (female, mouse, plasma, oral 5.6 mg/kg, CD-1 mice, HCl/Solutol HS15/citrate pH 3 formulation, read-out: t1/2 (oral) (converted)) it was 7.5 h; in series [2] (female, mouse, plasma, oral 105 mg/kg, CD-1 mice, HCl/Solutol HS15/citrate pH 3 formulation, read-out: t1/2 (oral) (converted)) it was 9.4 h; in series [2] (female, mouse, plasma, single oral dose 25 mg/kg, CD-1 mice, read-out: t1/2 (oral) (converted)), 10 h. Also, the AUC(0-t) in series [2] (female, mouse, plasma, oral 1.5 mg/kg, CD-1 mice, HCl/Solutol HS15/citrate pH 3 formulation) came out at 1000 ng·h/mL; in series [2] (female, mouse, plasma, oral 5.6 mg/kg, CD-1 mice, HCl/Solutol HS15/citrate pH 3 formulation), 2600 ng·h/mL; in series [2] (female, mouse, plasma, oral 105 mg/kg, CD-1 mice, HCl/Solutol HS15/citrate pH 3 formulation) it was 187000 ng·h/mL; in series [2] (female, mouse, plasma, single oral dose 25 mg/kg, CD-1 mice) it was 43300 ng·h/mL. Further, the highest concentration (Cmax) in series [2] (female, mouse, plasma, oral 1.5 mg/kg, CD-1 mice, HCl/Solutol HS15/citrate pH 3 formulation, read-out: Cmax) was determined as 100 ng/mL; in series [2] (female, mouse, plasma, oral 5.6 mg/kg, CD-1 mice, HCl/Solutol HS15/citrate pH 3 formulation, read-out: Cmax) it was 250 ng/mL; in series [2] (female, mouse, plasma, oral 105 mg/kg, CD-1 mice, HCl/Solutol HS15/citrate pH 3 formulation, read-out: Cmax) it was 10800 ng/mL; in series [2] (female, mouse, single oral dose 25 mg/kg, CD-1 mice, plasma, read-out: Cmax) it was 3600 ng/mL. Also, the bioavailability in series [2] (female, mouse, plasma, oral 1.5 mg/kg, CD-1 mice, HCl/Solutol HS15/citrate pH 3 formulation, read-out: F) came out at 44%; in series [2] (female, mouse, plasma, oral 5.6 mg/kg, CD-1 mice, HCl/Solutol HS15/citrate pH 3 formulation, read-out: F), 32%; in series [2] (female, mouse, plasma, oral 25 mg/kg vs i.v. 5 mg/kg, CD-1 mice, read-out: F (oral bioavailability)), 100%; in series [2] (female, mouse, plasma, oral 105 mg/kg, CD-1 mice, HCl/Solutol HS15/citrate pH 3 formulation, read-out: F), 100%. Moreover, the time to peak (Tmax) was found to be 1 h in series [2] (female, mouse, plasma, oral 1.5 mg/kg, CD-1 mice, HCl/Solutol HS15/citrate pH 3 formulation, read-out: Tmax); 2 h in series [2] (female, mouse, plasma, oral 5.6 mg/kg, CD-1 mice, HCl/Solutol HS15/citrate pH 3 formulation, read-out: Tmax); 24 h in series [2] (female, mouse, plasma, oral 105 mg/kg, CD-1 mice, HCl/Solutol HS15/citrate pH 3 formulation, read-out: Tmax); 1 h in series [2] (female, mouse, plasma, single oral dose 25 mg/kg, CD-1 mice, read-out: Tmax). For the same compound, the CL in series [2] (i.v. 5 mg/kg, CD-1 mice) came out at 9.7 mL/min/kg. In series [2] (oral 1.5–105 mg/kg, CD-1 mouse), the Dose linearity entry is reported as “nonlinear behavior”. For the same compound, the “Slope, log dose vs log AUC0-24 (dose proportionality)” value in series [2] (setting [7]) amounted to 1.30. The “Slope, log dose vs log Cmax (dose proportionality)” value in series [2] (setting [7]) is recorded as 1.18. In series [3] (aqueous buffer, thermodynamic from solid), the concentration in solution (Solubility) came to 39 µM (≈ 15.2 µg/mL). Besides, in series [4] (data not shown), the “Complete cure (>30 days survival)” value is “complete cure”. The same compound registered a Hill slope in series [4] of −2.73. For the same compound, the “Pmax (maximum parasitemia)” value in series [4] is 33.88. The “Pmin (minimum parasitemia)” value in series [4] was found to be 0.29. In addition, in series [4], the “ED90 (effective dose causing a 90% reduction in parasitemia)” value is given as 5.6 mg/kg.

`C[C@@H]1Cc2c([nH]c3cc(F)c(F)cc23)[C@]2(N1)C(=O)Nc1ccc(Cl)cc12` [(−)-6]: the “Hepatic CLint in mouse liver microsomes” value in series [1] came to 36 µL/min/mg. Further, in series [2] (i.v. 5 mg/kg, CD-1 mice), the CL worked out at 4.2 mL/min/kg, the Vss was determined as 2.8 L/kg and the “t1/2 (i.v.)” value was determined as 13.2 h. In addition, the “F (oral bioavailability)” value in series [2] (setting [8]) turned out to be 78%. Moreover, in series [2] (setting [9]), the “AUC0–24” value is 68200 ng·h/mL, the Tmax came to 2 h and the “t1/2 (oral)” value is reported as 7.9 h. The compound also gave a Cmax in series [2] (setting [10]) of 5000 ng/mL. Also, the “RBC to Plasma Ratio” value in series [5] is recorded as 0.81. This compound gave a Solubility in series [3] of 112 µM (≈ 41.9 µg/mL). For the same compound, the “Efficacy in the P. berghei mouse model” value in series [4] (single oral doses 2.5 to 100 mg/kg) is “no efficacy; also recorded: poor efficacy regardless of dose”. For the same compound, in series [6], the “Mouse PPB” value was 99.6%.

As for `C[C@H]1Cc2c([nH]c3ccc(Cl)cc23)[C@@]2(N1)C(=O)Nc1ccc(Cl)cc12` [(+)-2], in series [1], the “Hepatic CLint in mouse liver microsomes” value is 92 µL/min/mg. Also, in series [2] (i.v. 5 mg/kg, CD-1 mice), the CL came to 92.6 mL/min/kg, the Vss came to 9.9 L/kg and the “t1/2 (i.v.)” value is listed as 4.6 h. In series [2] (setting [8]), the “F (oral bioavailability)” value amounted to 62%. In series [2] (setting [9]), the “AUC0–24” value came out at 2900 ng·h/mL, the Tmax was 1 h and the “t1/2 (oral)” value was determined as 4.3 h. Also, the Cmax in series [2] (setting [10]) is 600 ng/mL. In addition, the “RBC to Plasma Ratio” value in series [5] was found to be 0.77. The compound further registered a Solubility in series [3] of 22 µM (≈ 8.19 µg/mL). In series [4], the Hill slope is −3.36, the “Pmax (maximum parasitemia)” value worked out at 30.90, the “Pmin (minimum parasitemia)” value worked out at 0.03 and the “ED90 (effective dose causing a 90% reduction in parasitemia)” value is recorded as 17.4 mg/kg.
